Assays:
ADJ/PC6A tumour = experiment: antitumour activity against ADJ/PC6A tumour in mice (ID90, LD50, therapeutic index); assay type: in vivo; conditions: intraperitoneal single dose in arachis oil
Protocol: Complexes according to the invention were tested for antitumour activity against L-1210 leukaemia, ADJ/PC6A tumour or S180 solid tumour in mice. […] Thus a % T/C of 100 indicates no activity and a % T/C of greater than or equal to 125 is considered to be indicative of significant antitumour activity.
(§1) Against a solid tumour, the % T/C is a measure of tumour regression and is the percentage of tumour weight in treated mice to that in control mice. Against ADJ/PC6A and S180, several dose levels were given and ranged from lethal to non-tumour inhibitory, allowing the calculation of LD50 and ID90 (minimum dose to cause 90% tumour inhibition) in one experiment. The ratio LD50 /ID90 is the therapeutic index and is a measure of the selectivity of the compound as an anti-tumour agent. All compounds were administered intraperitoneally as a single dose suspended in arachis oil.

L-1210 leukaemia = experiment: antitumour activity against L1210 leukaemia in mice (% T/C); assay type: in vivo; conditions: intraperitoneal, median survival treated/control
Protocol: (§2) Complexes according to the invention were tested for antitumour activity against L-1210 leukaemia, ADJ/PC6A tumour or S180 solid tumour in mice. In the results which follow, dosages are quoted in mg/Kg body weight and the evaluation of effectiveness (% T/C) against L1210 is calculated as the median survival time of treated mice divided by the median survival time of untreated (control) mice expressed as a percentage. Thus a % T/C of 100 indicates no activity and a % T/C of greater than or equal to 125 is considered to be indicative of significant antitumour activity.
as §1, with “All compounds were administered intraperitoneally as a single dose suspended in arachis oil.” left out

stability in solution = assay type: physicochemical
Protocol: cis-[PtI2 (n-C4 H9 NH2)2 ] (120 g, 0.20 mol) was slurried with a warm solution of silver nitrate (66 g, 0.38 mol) in water (200 ml). The mixture was stirred for 3 hours during which time the yellow suspension turned pale grey. The mixture was then treated with charcoal, stirred and filtered through a porosity 4 sinter. The residue was washed once with 30 ml of water and the washings were combined with the filtrate (total volume 300 ml).
Cis-[PtI2 (n-C3 H7 NH2)2 ] (127 g, 0.22 mol) was slurried with a warm (50° C.) solution of silver nitrate (73 g, 0.43 mol) in 130 mls of water. The mixture was stirred for 4 hours during which time the yellow suspension turned dark grey. The mixture was then treated with charcoal, stirred and filtered through a porosity 4 sinter. The residue was triturated with water (20 mls) and the filtrates combined to give a clear orange solution (total volume 150 mls).
The crude oxalto complex was recrystallised as follows. The product was added to a stirred, vigorously boiling aqueous solution of 0.1 M potassium oxalate (800 ml). The solution was boiled for 30 minutes to effect dissolution during which time the solution darkened owing to some platinum formation. The solution was then treated with charcoal, stirred, cooled to 80° C. and filtered through a porosity 4 sinter. White crystals formed on cooling the filtrate to 25° C. and after storage for 3 days at 5° C., the product was filtered off, washed with water and air dried.
The solution was concentrated to a volume of 30-40 mls, treated with charcoal and filtered through a porosity 4 sinter. A white solid formed when the solution was cool. This was filtered off on a porosity 3 sinter. More white solid was obtained when an equal volume of water was added to the ethanolic filtrate. The purified products were combined, washed with water, ethanol and dried in vacuo.

S180 solid tumour = experiment: antitumour activity against S180 solid tumour in mice (T/C); assay type: in vivo; conditions: S180, @ 10 mg/Kg, carrier water, intraperitoneal
Protocol: as §2
as §1, with “All compounds were administered intraperitoneally as a single dose suspended in arachis oil.” left out

[1] = aqueous solution, on standing (tendency to darken)

Compound: CCCCN.CCCCN.[Cl][Pt][Cl] [Cis-bis-(n-butylamine)dichloroplatinum(II)]
- ID90 (minimum dose to cause 90% tumour inhibition) (ADJ/PC6A tumour): < 10 mg/kg
- LD50 (ADJ/PC6A tumour): 110 mg/kg
- TI (therapeutic index, ratio LD50/ID90) (ADJ/PC6A tumour): > 11

Compound: CCCCCN.CCCCCN.[Cl][Pt][Cl] [cis-dichlorobis(1-aminopentane)platinum(II)]
- ID90 (minimum dose to cause 90% tumour inhibition) (ADJ/PC6A tumour): 37 mg/kg
- LD50 (ADJ/PC6A tumour): 92 mg/kg
- TI (therapeutic index, ratio LD50/ID90) (ADJ/PC6A tumour): 2.5

Compound: CCCN.CCCN.O=C1[O][Pt][O]C1=O [Bis-(n-propylamino)oxalatoplatinum(II), Oxalatobis(n-propylamine)platinum(II)]
- % T/C (L-1210 leukaemia; L1210, daily dose for 9 days @ 15 mg/Kg): 143%
- % T/C (L-1210 leukaemia; L1210, daily dose for 9 days @ 30 mg/Kg): 143%
- % T/C (L-1210 leukaemia; L1210, single dose @ 59 mg/Kg): 129%

Compound: CCCCCN.CCCCCN.O=C1[O][Pt][O]C1=O [Example 12, Oxalatobis(n-pentylamine)platinum(II)]
- stability (stability in solution; recrystallisation from hot ethanol): without apparent decomposition

Compound: CCCN.CCCN.O=C(CCl)[O][Pt][O]C(=O)CCl [Cis-bis(chloroacetato) bis(n-propylamine)platinum II]
- % T/C (L-1210 leukaemia; L1210, daily dose for 9 days @ 6 mg/Kg): 225%
- % T/C (L-1210 leukaemia; L1210, single dose @ 12 mg/Kg): 167%
- % T/C (L-1210 leukaemia; L1210, single dose @ 24 mg/Kg): 167%

Compound: CCCN.CCCN.[Cl][Pt][Cl] [Cis-bis(n-propylamine)dichloroplatinum(II)]
- % T/C (L-1210 leukaemia; L1210, daily dose for 9 days @ 4 mg/kg): 157%
- % T/C (L-1210 leukaemia; L1210, single dose @ 8 mg/Kg): 157%

Compound: CCN.CCN.O=C1[O][Pt][O]C1=O [Bis-(ethylamine)oxalatoplatinum(II)]
- T/C (tumour weight in treated mice to that in control mice) (S180 solid tumour): 21%

Compound: n-propylamine diaquo complex [Example 2]
- stability (stability in solution; [1]): slow decomposition to platinum

Compound: n-butylamine diaquo complex [Example 1]
- stability (stability in solution; [1]): slow decomposition to platinum

Compound: CCCCN.CCCCN.O=C(CCl)[O][Pt][O]C(=O)CCl [Cis-bis (n-butylamine) bis(chloroacetato) platinum (II)]
- % T/C (L-1210 leukaemia; L1210, daily dose for 9 days @ 32 mg/kg): 136%
- % T/C (L-1210 leukaemia; L1210, single dose @ 256 mg/Kg): 107%

Compound: CCCCN.CCCCN.O=C1[O][Pt][O]C1=O [Example 8, Bis (n-butylamine)oxalatoplatinum(II)]
- stability (stability in solution; boiling 0.1 M potassium oxalate): instability

From patent US4225529A, “Compositions containing platinum” (Johnson, Matthey & Co., Limited, priority 1977, dated 1980)
